In paper PMC7108851 (Journal of Virology, 2020):
Several values for one entry are separate records, joined by “and”; a condition that tells them apart may be missing. Equal values may be shown once. Read-outs that look alike come from different tables or passages of the source.

Key:
[1] = assay type: in vivo, female BLT mice; conditions: for genital tract tissue concentrations relative to what has been observed in women: single dose TFV 150 mg/kg, higher than in women (54)
Method: For RPV LA, 14 mice were injected intramuscularly in the flank with 3 mg RPV LA, for a dose of approximately 150 mg/kg. Two mice were euthanized at 1, 3, 6, 12, 24, 48, and 168 h postinjection. For TFV/FTC, an additional 12 mice were injected intraperitoneally with 150 mg/kg TFV and 100 mg/kg FTC. Two mice were euthanized at 1, 3, 6, 12, 24, and 48 h postinjection. Blood was drawn at each time point until euthanasia, and plasma was separated. At necropsy, female genital tract and colon/rectum were collected, weighed, and immediately flash-frozen dry.
RPV, TFV, and FTC were extracted from mouse plasma with isotopically labeled internal standards (RPV-d6; TFV-^13C5; and FTC-^13C, ^15N2, respectively) using protein precipitation. TFV and FTC were separated on a Waters Atlantis T3 (2.1 by 50 mm, 3 μm) high-performance liquid chromatography (HPLC) column and RPV on an Xterra MS C18 (2.1 by 50 mm, 3.5 μm) HPLC column. The calibrated ranges were 1 to 4,000 ng/ml (TFV and FTC) or 1 to 10,000 ng/ml (RPV). Calibration standards and quality control (QC) samples were prepared in blank plasma with an acceptance criteria of ±20%.
Frozen tissue biopsy specimens were homogenized in 1 ml of cold 70:30 acetonitrile–1 mM ammonium phosphate (pH 7.4). RPV, TFV, FTC, TFVdp, and FTCtp were extracted from tissue homogenate with the following isotopically labeled internal standards: RPV-d6; TFV-^13C5; FTC-^13C, ^15N2; and TFVdp-^13C5 (for both TFVdp and FTCtp). For quantification, analytes and internal standards were separated on a Waters Atlantis T-3 C18 HPLC column (TFV and FTC), a ThermoBioBasic AX HPLC column (TFVdp and FTCtp), or an Xterra MS C18 (2.1 by 50 mm, 3.5 μm) HPLC column (RPV). The calibrated ranges were 0.300 to 300 ng/ml (TFV, FTC, TFVdp, and FTCtp) and 1 to 200 ng/ml (RPV). Resulting concentrations were normalized to tissue weight assuming a tissue density of 1 g/ml ([86]) and reported as nanograms or femtomole per gram. Calibration standards and QC samples were prepared in blank tissue homogenate with an acceptance criteria of ±20%.

[2] = even at a high dose; cited from earlier work
[3] = system: simian immunodeficiency virus (SIV); conditions: cited from earlier work
Y181V HIV-1CH185 = assay: Drug susceptibility assay in TZM-bl cells; assay type: cell-based; conditions: Fig. 9B
Method: (§1) WT, Y181C, and Y181V HIV-1 stocks were phenotyped for resistance to RPV or RPV LA as previously described ([68]). Briefly, TZM-bl cells ([84]) were seeded at 5 × 10^3 cells in 96-well cell culture-treated, white-walled plates (PerkinElmer) in phenol red-free Dulbecco’s modified Eagle’s medium (DMEM; Life Technologies) supplemented with 10% fetal bovine serum (FBS; Atlanta Biologicals) and 100 U/ml penicillin, 100 μg/ml streptomycin, and 0.292 mg/ml L-glutamine (PSG; Life Technologies). The following day, virus was added at a multiplicity of infection (MOI) of 0.05 in the presence or absence of RPV dilutions in triplicate. Plates were incubated at 37°C for 48 h, and luciferase was measured using Britelite Plus reagent (PerkinElmer) on a Luminoskan Ascent microplate luminometer (Thermo Scientiﬁc). Relative light units (RLU) were converted to percent infection by dividing the RLU of each drug dilution by the RLU of the 100% infection control in the absence of drug. Wells containing cells with no virus and no drug were used to normalize for background luciferase output. The EC50 was calculated by log transforming drug concentrations and using a four-parameter variable-slope nonlinear regression for curve-ﬁtting analysis using PRISM 6 (GraphPad).

Y181V HIV-1NL4-BAL = assay: Drug susceptibility assay in TZM-bl cells; assay type: cell-based
Method: as §1

Y181C HIV-1NL4-BAL = assay: Drug susceptibility assay in TZM-bl cells; assay type: cell-based; conditions: Fig. 1A
Method: as §1

WT HIV-1CH185 = assay: Drug susceptibility assay in TZM-bl cells; assay type: cell-based; conditions: Human immunodeficiency virus 1, Fig. 9B
Method: as §1

WT HIV-1NL4-BAL = assay: Drug susceptibility assay in TZM-bl cells; assay type: cell-based; conditions: Human immunodeficiency virus 1, BAL
Method: as §1

[4] = cited from earlier work
Y181I HIV-1NL4-BAL = assay: Drug susceptibility assay in TZM-bl cells; assay type: cell-based; conditions: Fig. 1A
Y181C = system: Y181C; parameters: method as in PMID 19933797; conditions: cited from earlier work
HIV-1 = conditions: cited from earlier work
E138K = assay: RPV resistance of RT mutant (data not shown); assay type: cell-based, HIV-1
Y181V = system: Y181V; parameters: method as in earlier work; conditions: cited from earlier work
Y181I/V = system: Y181I/V; parameters: method as in PMID 19933797; conditions: cited from earlier work

CC(Cn1cnc2c(N)ncnc21)OCP(=O)(O)OP(=O)(O)OP(=O)(O)O (stereo in doubt) [TFVdp, TFV diphosphate]
genital tract tissue concentrations relative to what has been observed in women [1]: approximately 10 fold

C[C@H](Cn1cnc2c(N)ncnc21)OCP(=O)(O)O [TFV, tenofovir]
genital tract tissue concentrations relative to what has been observed in women [1]: approximately 10 fold

Cc1cc(/C=C/C#N)cc(C)c1Nc1ccnc(Nc2ccc(C#N)cc2)n1 [RPV, rilpivirine]
metabolism in macaques [2]: rapidly metabolized | inhibition of simian immunodeficiency virus (SIV) [3]: does not inhibit | EC50 (Y181V HIV-1CH185; Human immunodeficiency virus 1, TZM-bl cells): 12 ± 1.5 nM | fold change from the level for WT HIV-1NL4-BAL (Y181V HIV-1CH185; Y181V HIV-1CH185): 36 fold | EC50 (Y181V HIV-1NL4-BAL; Human immunodeficiency virus 1, BAL, TZM-bl cells, Fig. 9B): 7.3 ± 1.3 nM | fold change from the level for WT HIV-1NL4-BAL (Y181V HIV-1NL4-BAL; Y181V HIV-1NL4-BAL, Fig. 9B): 21 fold | fold increase in EC50 (RPV resistance) vs WT HIV-1NL4-BAL (Y181V HIV-1NL4-BAL; Y181V, TZM-bl cells, Fig. 1A): 27 fold | reduced susceptibility to RPV of virus encoding Y181V (Y181V HIV-1NL4-BAL; discussion): > 20 fold | RPV resistance of Y181V HIV-1 (Y181V HIV-1NL4-BAL; in the viruses used for this study (abstract)): 30 fold | fold increase in EC50 (RPV resistance) vs WT HIV-1NL4-BAL (Y181C HIV-1NL4-BAL): 3 fold | EC50 (WT HIV-1CH185): 0.21 ± 0.003 nM | EC50 (WT HIV-1NL4-BAL; Fig. 1A, read-out: 50% effective concentration (EC50)): 0.54 nM and 0.0002 µg/mL | EC50 (WT HIV-1NL4-BAL; Fig. 9B, read-out: average EC50): 0.34 ± 0.07 nM | EC50 (WT HIV-1NL4-BAL; RPV LA compared with soluble RPV, Fig. 2, read-out: EC50): 0.6 nM and 0.00022 µg/mL | protein binding [4]: highly protein bound | fold increase in EC50 (RPV resistance) vs WT HIV-1NL4-BAL (Y181I HIV-1NL4-BAL): 23 fold | resistance conferred by Y181C (Y181C): 3 fold | protein-adjusted 90% effective concentration (EC90) (HIV-1): 0.012 µg/mL and 0.0121 µg/mL | EC90 (HIV-1; read-out: protein-adjusted EC90): 33 nM | resistance conferred by E138K (E138K): 2 fold | resistance conferred by Y181V (Y181V): approximately 20 fold

Cc1ccnc2c1NC(=O)c1cccnc1N2C1CC1 [nevirapine]
resistance conferred by Y181I/V (Y181I/V): > 60 fold | resistance conferred by Y181C (Y181C): > 40 fold

Nc1nc(=O)n([C@@H]2CS[C@H](COP(=O)(O)OP(=O)(O)OP(=O)(O)O)O2)cc1F [FTCtp, FTC triphosphate]
tissue FTC triphosphate (FTCtp) concentrations ([1]; female genital tract, 12 h, 24 h, and 48 h postdose, single dose PK study): undetectable
